Molecular target: SARS-CoV PLpro (Severe acute respiratory syndrome coronavirus, UniProt P0C6X7)
Assay type: cell-based

CC(=O)Nc1cccc(CNC(=O)C2CCN([C@H](C)c3cccc4ccccc34)CC2)c1 [compound 3e]
Effect on SARS-CoV PLpro activity in the biosensor assay: blocks

— publication PMC5228125 (Scientific Reports, 2017)
